# In patent US20060008512A1, “Composition and methods for improved animal performance” (priority 2004, published 2006):
# Like-named read-outs stand apart in the source and are kept apart here. Marks after values point to notes of the source that are not given here.
# Columns and labels:
# [1] = tested on: Hy-Line W-36 White Leghorn hens; conditions: for Ovary Weight per hen / Oviduct Weight per hen: day 34
# Text: Experiment 3. […] The photoperiod serves as the primary environmental signal that regulates reproductive function in many avian species. Increasing the photoperiod promotes maturation of the gonads and reproductive tract, whereas reducing the photoperiod causes the gonads and reproductive tract to regress and molting to occur.
# Bovans caged laying hens = experiment: Experiment 6: molting of caged laying hens with dietary L-thyroxine or TIC plus MgO or sodium salicylate; format: in vivo, chicken; conditions: 10 hours of light daily
# Text: Experiment 6. Molting of Caged Laying with Dietary L-Thyroxine or Thyroactive Iodinated Casein Plus MgO or Sodium Salicylate.
# In Experiment 6, a conventional feed withdrawal molting procedure was compared with 5 dietary thyroxine treatments. Body weight loss after 9 days was greater, days to 0% egg production (9 days) shorter, ovary plus oviduct weight numerically lighter on day 9 of treatment, but eggs collected on day 4 of treatment had thinner shells, in the feed withdrawal group.
# turkey breeder hens = experiment: Experiment 7: molting of turkey breeder hens with dietary L-thyroxine, porcine thyroid powder or TIC with or without protease; format: in vivo; conditions: for Ending (10 d) Body Wt / Liver Weight / Ovary Weight / Oviduct Weight: turkey breeder hens, 6 per treatment
# Text: Experiment 7. Molting of Turkey Breeder Hens with Dietary L-Thyroxine, Porcine Thyroid Powder, or Thyroactive Iodinated Casein With or Without Protease. Turkey breeder hens were molted with various dietary thyroxine treatments at Diamond K Research, […]. (Jun. 20-Jul. 1, 2005).
# [2] = tested on: Cobb broiler breeder hens and roosters
# Text: Molting Cobb Broiler Breeder Hens and Roosters with Dietary Thyroxine.
# White Leghorn hens = conditions: excessive injected levels, e.g. 243 micrograms/100 g body weight; cited from earlier work
# laying turkeys = conditions: 2 mg L-thyroxine/hen/day i.m.; cited from earlier work
# young rats = conditions: 10 mg L-thyroxine/kg diet; 400 mg magnesium/kg; cited from earlier work
# broiler chickens = conditions: 1 mg/kg of diet, 0 to 28 days of age, cited from earlier work
# fine-wool Merino wethers = conditions: 60 mg thyroxine implants in summer and autumn; cited from earlier work
# [3] = daily injections of 150 mcg/kg body weight; cited from earlier work
# [4] = tested on: fast-growing broiler chickens; conditions: low ambient temperature and pelleted feed; untreated 21.5%; cited from earlier work
# [5] = tested on: growing cockerel and pullet chickens; conditions: 10 mg/kg dietary thyroid hormone; cited from earlier work
# [6] = tested on: 96-week old broiler breeder cockerels; conditions: 2 or 5 ppm T4 in diet for 4 weeks; cited from earlier work
# [7] = 40 mg T4/kg diet, listed as L-T
# [8] = 10 mg T4/kg diet fed for 10 days
# [9] = 25 mg T4/kg diet fed for 10 days
# [10] = 40 mg T4/kg diet fed for 10 days
compound,measurement,setting,value
"N[C@@H](Cc1cc(I)c(Oc2cc(I)c(O)c(I)c2)c(I)c1)C(=O)O [L-thyroxine, 3,5,3′,5′-tetraiodo-L-thyronine]",Hens molted,"[1]; 20 mg T4/kg groups, either chamber",None of the hens
same,Time to significantly reduced egg production,"[1]; 20 mg T4/kg, 17 hr light",≤ 8 days
same,Body weight (BW),"[1]; 20 mg/kg of feed 12 d from day 13, 8 hr light, Day 12 (pre-molt)",1492 g
same,Body weight change (% BWC),"[1]; 20 mg/kg of feed 12 d from day 13, 8 hr light, Day 22",−12.8%
same,Body weight (BW),"[1]; 20 mg/kg of feed 12 d from day 13, 8 hr light, Day 22 (end of molt)",1301 g
same,Body weight change (% BWC),"[1]; 20 mg/kg of feed 12 d from day 13, 8 hr light, Day 34",−10.7%
same,Body weight (BW),"[1]; 20 mg/kg of feed 12 d from day 13, 8 hr light, Day 34 (final)",1332 g
same,Body weight (BW),"[1]; 20 mg/kg of feed 12 d from day 13, 17 hr light, Day 12 (pre-molt)",1572 g
same,Body weight change (% BWC),"[1]; 20 mg/kg of feed 12 d from day 13, 17 hr light, Day 22",−13.3%
same,Body weight (BW),"[1]; 20 mg/kg of feed 12 d from day 13, 17 hr light, Day 22 (end of molt)",1363 g
same,Body weight change (% BWC),"[1]; 20 mg/kg of feed 12 d from day 13, 17 hr light, Day 34",−7.6%
same,Body weight (BW),"[1]; 20 mg/kg of feed 12 d from day 13, 17 hr light, Day 34 (final)",1453 g
same,Ovary Weight per hen,"[1]; 20 mg/kg of feed, 8 hr light",7.91 g
same,Oviduct Weight per hen,"[1]; 20 mg/kg of feed, 8 hr light",18.64 g
same,Ovary Weight per hen,"[1]; 20 mg/kg of feed, 17 hr light",31.41 g
same,Oviduct Weight per hen,"[1]; 20 mg/kg of feed, 17 hr light",43.81 g
same,Hens molted fully,"[1]; 40 mg T4/kg, 8 hr light, 7/12",58%
same,Hens molted fully,"[1]; 40 mg T4/kg, 17 hr light",100%
same,Time to significantly reduced egg production,"[1]; 40 mg T4/kg, 17 hr light",≤ 6 days
same,Body weight (BW),"[1]; 40 mg/kg of feed 12 d from day 13, 8 hr light, Day 12 (pre-molt)",1488 g
same,Body weight change (% BWC),"[1]; 40 mg/kg of feed 12 d from day 13, 8 hr light, Day 22",−17.9%
same,Body weight (BW),"[1]; 40 mg/kg of feed 12 d from day 13, 8 hr light, Day 22 (end of molt)",1222 g
same,Body weight change (% BWC),"[1]; 40 mg/kg of feed 12 d from day 13, 8 hr light, Day 34",−12.6%
same,Body weight (BW),"[1]; 40 mg/kg of feed 12 d from day 13, 8 hr light, Day 34 (final)",1300 g
same,Body weight (BW),"[1]; 40 mg/kg of feed 12 d from day 13, 17 hr light, Day 12 (pre-molt)",1436 g
same,Body weight change (% BWC),"[1]; 40 mg/kg of feed 12 d from day 13, 17 hr light, Day 22",−18.0%
same,Body weight (BW),"[1]; 40 mg/kg of feed 12 d from day 13, 17 hr light, Day 22 (end of molt)",1178 g
same,Body weight change (% BWC),"[1]; 40 mg/kg of feed 12 d from day 13, 17 hr light, Day 34",−14.8%
same,Body weight (BW),"[1]; 40 mg/kg of feed 12 d from day 13, 17 hr light, Day 34 (final)",1224 g
same,Ovary Weight per hen,"[1]; 40 mg/kg of feed, 8 hr light",9.32 g
same,Oviduct Weight per hen,"[1]; 40 mg/kg of feed, 8 hr light",14.25 g
same,Ovary Weight per hen,"[1]; 40 mg/kg of feed, 17 hr light",3.82 g
same,Oviduct Weight per hen,"[1]; 40 mg/kg of feed, 17 hr light",8.03 g
same,Mortality,"[1]; 20 and 40 mg T4/kg, 12 days",No mortality occurred
same,Time to significantly reduced egg production,"[1]; 20 and 40 mg T4/kg, 8 hr light",≤ 4 days
same,2&4 Jun. 05 Egg Weight,Bovans caged laying hens; 20 mg T4/kg diet,58.68 g
same,4 Jun. 05 Shell + Membrane,Bovans caged laying hens; 20 mg T4/kg diet,0.466^a mm
same,9 Jun. 05 (9th d Trt) Body Wt Change,Bovans caged laying hens; 20 mg T4/kg diet,−0.50^b lb
same,9 Jun. 05 Ovary + Oviduct,Bovans caged laying hens; 20 mg T4/kg diet,4.59 % B Wt
same,25 May 05 Initial Body Wt,Bovans caged laying hens; 20 mg T4/kg diet,3.49 lb
same,Days to 0% Egg Prod. (by Replicate),Bovans caged laying hens; 20 mg T4/kg diet,12.0^a Days
same,2&4 Jun. 05 Egg Weight,Bovans caged laying hens; 40 mg T4/kg diet,60.17 g
same,4 Jun. 05 Shell + Membrane,Bovans caged laying hens; 40 mg T4/kg diet,0.446^a mm
same,9 Jun. 05 (9th d Trt) Body Wt Change,Bovans caged laying hens; 40 mg T4/kg diet,−0.54 lb
same,9 Jun. 05 Ovary + Oviduct,Bovans caged laying hens; 40 mg T4/kg diet,3.19 % B Wt
same,25 May 05 Initial Body Wt,Bovans caged laying hens; 40 mg T4/kg diet,3.57 lb
same,Days to 0% Egg Prod. (by Replicate),Bovans caged laying hens; 40 mg T4/kg diet,11 days
same,9 Jun. 05 (9th d Trt) Body Wt Change,Bovans caged laying hens; [7],−0.60^b lb
same,Days to 0% Egg Prod. (by Replicate),Bovans caged laying hens; [7],11.0^a Days
same,Ending (10 d) Body Wt,turkey breeder hens; [8],23.03 lb
same,Liver Weight,turkey breeder hens; [8],143.0^bc g
same,Ovary Weight,turkey breeder hens; [8],159.1^a g
same,Oviduct Weight,turkey breeder hens; [8],124.1^a g
same,Ending (10 d) Body Wt,turkey breeder hens; [9],25.11 lb
same,Liver Weight,turkey breeder hens; [9],144.6^b g
same,Ovary Weight,turkey breeder hens; [9],160.5^a g
same,Oviduct Weight,turkey breeder hens; [9],134.7^a g
same,Ending (10 d) Body Wt,turkey breeder hens; [10],22.99 lb
same,Liver Weight,turkey breeder hens; [10],141.9^bc g
same,Ovary Weight,turkey breeder hens; [10],129.1^a g
same,Oviduct Weight,turkey breeder hens; [10],138.7^a g
same,Regressing reproductive tracts,"turkey breeder hens; 10, 20, or 40 mg T4/kg diet, 10 days",not as effective as porcine thyroid powder
same,Toxicity to broiler breeder males,[2]; 25 mg/kg diet or more,toxic to broiler breeder males (death)
same,Testes of broiler breeder males,[2]; 25 or 40 mg T4/kg diet,testes shown to enlarge
same,Adverse sign in roosters,[2]; 25 or 40 mg/kg diet,“stroke blood” from the nostrils
same,"Time on treated feed until hens reduced feed intake, ceased egg production and began to molt feathers","[2]; Cobb broiler breeder hens, 25 or 40 ppm",15 to 17 days
same,Tolerance of males for thyroxine (T4) alone,[2]; excess causes mortality,< 25 mg/kg diet
same,Mortality,White Leghorn hens,47%
same,Time out of egg production after treatment,laying turkeys,4 weeks
same,Weight gain in 16 days,young rats,60 g
same,Serum thyroxine level,broiler chickens; first experiment (control 41.1),88.7 ng/mL
same,Serum thyroxine level,broiler chickens; second experiment (control 21.1),69.3 ng/mL
same,Increase in annual fleece weight,fine-wool Merino wethers,34%
same,Decrease in fiber diameter,[3],7.8%
same,Increase in mohair length growth rate,[3],15%
same,Ascites,[4],7%
same,Reduction in body weight gain compared to controls,[5],28.18%
same,Week at which daily sperm output returned to control values,[6],11 week
same,Week at which plasma testosterone levels returned to control values,[6],5 week
